Source: ChEMBL document CHEMBL3758109, “A novel triazole derivative of betulinic acid induces extrinsic and intrinsic apoptosis in human leukemia HL-60 cells” (Eur J Med Chem, 2016)
The source made the active and inactive calls. The calls are words filed in the database; no cut-off is given here.

Columns and labels:
[1] = Cytotoxicity against human PC3 cells assessed as cell growth inhibition after 48 hrs by MTT assay; format: functional, cell-based; conditions: PC-3, 48 h
[2] = Cytotoxicity against human HL60 cells assessed as cell growth inhibition at 10 uM after 48 hrs by MTT assay; format: functional; conditions: HL-60, 48 h, read-out: GI
[3] = Cytotoxicity against human MIAPaCa2 cells assessed as cell growth inhibition after 48 hrs by MTT assay; format: functional, cell-based; conditions: MIA PaCa-2, 48 h
HL-60 [4] = assay: Induction of mitochondrial potential loss in human HL60 cells at 20 uM after 24 hrs by rhodamine-123 staining based flow cytometry (reference value: 3%); format: functional
[5] = Cell cycle arrest in human HL60 cells assessed as accumulation at G2/M phase at 20 uM after 24 hrs by propidium iodide staining based flow cytometry (reference value: 6%); format: functional; conditions: HL-60
A549 [6] = assay: Cytotoxicity against human A549 cells assessed as cell growth inhibition after 48 hrs by MTT assay; format: functional, cell-based; conditions: A549, 48 h
[7] = Cytotoxicity against human MIAPaCa2 cells assessed as cell growth inhibition at 10 uM after 48 hrs by MTT assay; format: functional; conditions: MIA PaCa-2, 48 h, read-out: GI
[8] = Cell cycle arrest in human HL60 cells assessed as accumulation at S phase at 5 uM after 24 hrs by propidium iodide staining based flow cytometry (reference value: 48%); format: functional; conditions: HL-60
HL-60 [9] = assay: Induction of apoptosis in human HL60 cells assessed as activation of procaspase- 8 at 5 to 20 uM after 24 hrs by Western blot; format: functional, cell-based
HL-60 [10] = assay: Induction of apoptosis in human HL60 cells assessed as up regulation of Bax after 24 hrs by Western blot; format: functional, cell-based
HL-60 [11] = assay: Induction of apoptosis in human HL60 cells assessed as cleavage of PARP-1 at 5 to 20 uM after 24 hrs by Western blot; format: functional, cell-based
[12] = Cell cycle arrest in human HL60 cells assessed as accumulation at G1 phase at 20 uM after 24 hrs by propidium iodide staining based flow cytometry (reference value: 46%); format: functional; conditions: HL-60
HL-60 [13] = assay: Induction of mitochondrial potential loss in human HL60 cells at 10 uM after 24 hrs by rhodamine-123 staining based flow cytometry (reference value: 3%); format: functional
HL-60 [14] = assay: Induction of apoptosis in human HL60 cells assessed as activation of caspase- 6 at 5 to 20 uM after 24 hrs by Western blot; format: functional, cell-based
[15] = Cell cycle arrest in human HL60 cells assessed as accumulation at G1 phase at 10 uM after 24 hrs by propidium iodide staining based flow cytometry (reference value: 46%); format: functional; conditions: HL-60
HL-60 [16] = assay: Induction of mitochondrial potential loss in human HL60 cells at 5 uM after 24 hrs by rhodamine-123 staining based flow cytometry (reference value: 3%); format: functional
[17] = Cell cycle arrest in human HL60 cells assessed as accumulation at G2/M phase at 5 uM after 24 hrs by propidium iodide staining based flow cytometry (reference value: 6%); format: functional; conditions: HL-60
HL-60 [18] = assay: Induction of apoptosis in human HL60 cells at 20 uM after 24 hrs by propidium iodide staining based flow cytometry (reference value: 3%); format: functional
HL-60 [19] = assay: Induction of apoptosis in human HL60 cells at 5 uM after 24 hrs by propidium iodide staining based flow cytometry (reference value: 3%); format: functional
HL-60 [20] = assay: Induction of apoptosis in human HL60 cells at 10 uM after 24 hrs by propidium iodide staining based flow cytometry (reference value: 3%); format: functional
[21] = Cytotoxicity against human HL60 cells assessed as cell growth inhibition after 48 hrs by MTT assay; format: functional, cell-based; conditions: HL-60, 48 h
[22] = Cell cycle arrest in human HL60 cells assessed as accumulation at S phase at 20 uM after 24 hrs by propidium iodide staining based flow cytometry (reference value: 48%); format: functional; conditions: HL-60
A549 [23] = assay: Cytotoxicity against human A549 cells assessed as cell growth inhibition at 10 uM after 48 hrs by MTT assay; format: functional; conditions: A549, 48 h, read-out: GI
HL-60 [24] = assay: Induction of apoptosis in human HL60 cells assessed as decrease in Bcl-2/Bax ratio after 24 hrs by Western blot; format: functional, cell-based
[25] = Cell cycle arrest in human HL60 cells assessed as accumulation at G2/M phase at 10 uM after 24 hrs by propidium iodide staining based flow cytometry (reference value: 6%); format: functional; conditions: HL-60
HL-60 [26] = assay: Induction of mitochondrial potential loss in human HL60 cells after 24 hrs by rhodamine-123 staining based flow cytometry (reference value: 3%); format: functional, cell-based
HL-60 [27] = assay: Induction of apoptosis in human HL60 cells assessed as activation of caspase- 7 at 5 to 20 uM after 24 hrs by Western blot; format: functional, cell-based
[28] = Cell cycle arrest in human HL60 cells assessed as accumulation at G1 phase at 5 uM after 24 hrs by propidium iodide staining based flow cytometry (reference value: 46%); format: functional; conditions: HL-60
[29] = Cytotoxicity against human PC3 cells assessed as cell growth inhibition at 10 uM after 48 hrs by MTT assay; format: functional; conditions: PC-3, 48 h, read-out: GI
[30] = Cell cycle arrest in human HL60 cells assessed as accumulation at S phase at 10 uM after 24 hrs by propidium iodide staining based flow cytometry (reference value: 48%); format: functional; conditions: HL-60
HL-60 [31] = assay: Induction of apoptosis in human HL60 cells assessed as activation of procaspase- 9 at 5 to 20 uM after 24 hrs by Western blot; format: functional, cell-based
HL-60 [32] = assay: Induction of apoptosis in human HL60 cells assessed as activation of caspase- 3 at 5 to 20 uM after 24 hrs by Western blot; format: functional, cell-based
HL-60 [33] = assay: Induction of apoptosis in human HL60 cells assessed as down regulation of Bcl-2 after 24 hrs by Western blot; format: functional, cell-based

C=C(C)[C@@H]1CC[C@]2(C(=O)OCc3cn(-c4ccc(F)cc4)nn3)CC[C@]3(C)[C@H](CC[C@@H]4[C@@]5(C)CC[C@H](O)C(C)(C)[C@@H]5CC[C@]43C)[C@@H]12
IC50 [1]: 7 µM
inhibition of growth at 10 µM [2]: 69%
IC50 [3]: 5 µM
Activity (HL-60 [4]): 27%
Activity [5]: 1%
IC50 (A549 [6]): 7 µM
inhibition of growth at 10 µM [7]: 75%
Activity [8]: 47%
Activity (HL-60 [9]): Active
Activity (HL-60 [10]): Active
Activity (HL-60 [11]): Active
Activity [12]: 90%
Activity (HL-60 [13]): 18%
Activity (HL-60 [14]): Active
Activity [15]: 53%
Activity (HL-60 [16]): 7%
Activity [17]: 5%
Activity (HL-60 [18]): 14%
Activity (HL-60 [19]): 5%
Activity (HL-60 [20]): 7%
IC50 [21]: 7 µM
Activity [22]: 9%
inhibition of growth at 10 µM (A549 [23]): 63%
Activity (HL-60 [24]): Active
Activity [25]: 3%
Activity (HL-60 [26]): Dose-dependent effect
Activity (HL-60 [27]): Active
Activity [28]: 48%
inhibition of growth at 10 µM [29]: 62%
Activity [30]: 44%
Activity (HL-60 [31]): Active
Activity (HL-60 [32]): Active
Activity (HL-60 [33]): Dose-dependent effect
